Here are results for five molecules from US20230265151A1, “GIP/GLP1 CO-AGONIST COMPOUNDS” (priority 2020, published 2023).

In test [1] the target is T1, human Gcg receptor (hGcgR) (Homo sapiens, UniProt P47871).
T1 construct: expressed in transfected cells; crude membranes
Briefly: [125I]-Glucagon binding, SPA with membranes of HEK293 cells expressing hGcgR. To be noted: human GcgR; geometric mean (SEM, n); read-out: Binding Affinity Ki, nM (SEM, n) hGCGR.

Test [2] addresses T2, human GLP-1 receptor (hGLP-1R) (Homo sapiens, UniProt P43220).
T2 construct: expressed in transfected cells; crude membranes
Briefly: [125I]-GLP-1 binding, SPA with membranes of HEK293 cells expressing hGLP-1R. To be noted: human GLP-1R; geometric mean (SEM, n); read-out: Binding Affinity Ki, nM (SEM, n) hGLP-1R.

The target of test [3] is T3, human GIP receptor (hGIPR) (Homo sapiens, UniProt P48546).
T3 construct: expressed in transfected cells; crude membranes
T3 sequence (P48546 22-466): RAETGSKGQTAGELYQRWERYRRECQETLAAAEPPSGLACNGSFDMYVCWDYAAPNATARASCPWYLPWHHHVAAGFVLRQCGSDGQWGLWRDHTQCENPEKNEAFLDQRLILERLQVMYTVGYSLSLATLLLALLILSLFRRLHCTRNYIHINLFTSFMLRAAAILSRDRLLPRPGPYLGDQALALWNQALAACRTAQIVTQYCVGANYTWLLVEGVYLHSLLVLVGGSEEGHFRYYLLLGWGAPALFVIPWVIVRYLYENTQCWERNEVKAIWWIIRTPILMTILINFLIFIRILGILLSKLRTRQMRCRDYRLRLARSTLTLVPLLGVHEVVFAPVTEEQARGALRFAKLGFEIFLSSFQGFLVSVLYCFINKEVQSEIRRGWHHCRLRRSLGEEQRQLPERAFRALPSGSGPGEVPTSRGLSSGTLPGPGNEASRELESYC
Description: [125I]-GIP binding, SPA with membranes of CHO cells expressing hGIPR. To be noted: human GIPR; geometric mean (SEM, n); read-out: Binding Affinity Ki, nM (SEM, n) hGIPR.

The target of the next test is T4, hGIPR (Homo sapiens, UniProt P48546).
T4 construct: expressed in transfected cells
T4 sequence (P48546 22-466): T3 sequence (P48546 22-466)
Briefly: Functional cAMP formation (HTRF) in HEK-293 clonal cells expressing hGIPR, 0.1% bovine casein, without or with 1.0% human serum albumin. The format is cell-based. To be noted: 37° C.; for Emax: HEK293, cAMP, 0.1% bovine casein and 1.0% human serum albumin, percent of maximal response to GIP(1-42)NH2, read-out: hGIPR Emax, % ± SEM; for EC50: cAMP, 0.1% bovine casein (no human serum albumin), geometric mean, read-out: hGIPR EC50, nM (SEM, n). In a few lines: (§1)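 Cells were stimulated with peptide for 30 min at 37° C, then intracellular cAMP was measured by competitive HTRF (665/620 nm ratio) and converted to nM using a cAMP standard curve. Relative EC50 and Emax came from four-parameter logistic fits of percent maximal response against peptide concentration.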

The next test addresses T5, hGCGR (Homo sapiens, UniProt P47871).
T5 construct: expressed in transfected cells
Briefly: Functional cAMP formation (HTRF) in HEK-293 clonal cells expressing hGCGR, 0.1% bovine casein, without or with 1.0% human serum albumin. To be noted: cAMP, 37° C., read-out: hGCGR EC50, nM (SEM, n). In kind it is cell-based. A digest of the protocol:
as §1

The target of a further test is hGLP-1R (Homo sapiens, UniProt P43220). Description: Functional cAMP formation (HTRF) in HEK-293 clonal cells expressing hGLP-1R, 0.1% bovine casein, without or with 1.0% human serum albumin. The settings on record: 37° C.; for Emax: HEK293, cAMP, percent of maximal response to GLP-1(7-36)NH2, read-out: hGLP-1R Emax, % ± SEM; for EC50: cAMP, read-out: hGLP-1R EC50, nM (SEM, n). The format is cell-based. Details: expressed in transfected cells. A digest of the protocol: as §1

Test [4] addresses human glucagon receptor (human) (UniProt P47871). Briefly: cell-based or functional assay.
Test [5] deals with human glucagon-like peptide-1 (GLP-1) receptor (human) (UniProt P43220). Description: cell-based or functional assay.
Test [6] has as its target T6, human glucose-dependent insulinotropic polypeptide (GIP) receptor (human) (UniProt P48546).
T6 sequence (looked up): T3 sequence (P48546 22-466)
Briefly: cell-based or functional assay.

The target of another test is T7, human GIP receptor (human, UniProt P48546 22-466).
T7 sequence (looked up): T3 sequence (P48546 22-466)
Briefly: cell-based or functional assay.

A further test deals with human GLP-1 receptor (human, UniProt P43220 24-463). Briefly: cell-based or functional assay.
Where [7] appears, read: 0.1% bovine casein (no human serum albumin), geometric mean.
Where [8] appears, read: 0.1% bovine casein and 1.0% human serum albumin, geometric mean (SEM, n).
[9] abbreviates: 0.1% bovine casein, arithmetic mean.

Read-outs that look alike come from different tables or passages of the source.

T2 sequence (P43220 24-463): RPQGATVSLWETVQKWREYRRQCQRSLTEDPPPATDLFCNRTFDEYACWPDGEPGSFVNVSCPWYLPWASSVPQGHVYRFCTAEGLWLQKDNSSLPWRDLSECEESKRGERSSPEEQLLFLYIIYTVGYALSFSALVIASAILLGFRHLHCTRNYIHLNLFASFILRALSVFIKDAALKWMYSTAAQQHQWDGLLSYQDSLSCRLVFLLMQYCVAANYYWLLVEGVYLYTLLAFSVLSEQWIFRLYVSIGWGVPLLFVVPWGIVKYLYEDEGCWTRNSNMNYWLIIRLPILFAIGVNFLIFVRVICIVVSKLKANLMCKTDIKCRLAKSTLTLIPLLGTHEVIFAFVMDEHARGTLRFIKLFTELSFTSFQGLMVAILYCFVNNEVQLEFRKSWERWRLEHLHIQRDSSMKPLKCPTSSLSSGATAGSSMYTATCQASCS
Chain of hGLP-1R (P43220 24-463): as above
T1 sequence (P47871 26-477): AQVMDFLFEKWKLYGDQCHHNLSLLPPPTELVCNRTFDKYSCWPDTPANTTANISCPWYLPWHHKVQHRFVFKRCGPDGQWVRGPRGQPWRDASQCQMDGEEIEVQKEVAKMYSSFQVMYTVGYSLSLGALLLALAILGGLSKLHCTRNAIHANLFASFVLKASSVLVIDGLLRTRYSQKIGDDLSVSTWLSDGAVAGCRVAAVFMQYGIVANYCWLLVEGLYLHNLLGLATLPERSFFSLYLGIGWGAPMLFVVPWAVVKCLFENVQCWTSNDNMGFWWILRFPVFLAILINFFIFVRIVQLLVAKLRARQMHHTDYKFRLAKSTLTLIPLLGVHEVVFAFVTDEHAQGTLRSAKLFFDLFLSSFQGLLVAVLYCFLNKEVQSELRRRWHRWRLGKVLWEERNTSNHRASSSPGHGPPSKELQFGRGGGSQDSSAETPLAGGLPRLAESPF
T5 sequence (P47871 26-477): as above

Take `CC[C@H](C)[C@H](NC(=O)[C@H](CC(C)C)NC(=O)[C@](C)(Cc1ccc(O)cc1)NC(=O)[C@H](CCCCNC(=O)COCCOCCNC(=O)COCCOCCNC(=O)COCCOCCNC(=O)CC[C@H](NC(=O)CCCCCCCCCCCCC(=O)O)C(=O)O)NC(=O)[C@@H](NC(=O)[C@H](Cc1ccccc1)NC(=O)[C@H](CCCN)NC(=O)C(C)(C)NC(=O)[C@H](CCC(N)=O)NC(=O)[C@H](C)NC(=O)[C@H](CCC(N)=O)NC(=O)[C@H](CCCN)NC(=O)[C@H](CC(=O)O)NC(=O)[C@H](CC(C)C)NC(=O)[C@](C)(CC(C)C)NC(=O)[C@@H](NC(=O)C(C)(C)NC(=O)[C@H](Cc1ccc(O)cc1)NC(=O)[C@H](CC(=O)O)NC(=O)[C@H](CO)NC(=O)[C@@H](NC(=O)[C@](C)(Cc1ccccc1F)NC(=O)[C@@H](NC(=O)CNC(=O)[C@H](CCC(=O)O)NC(=O)C(C)(C)NC(=O)[C@@H](N)Cc1ccc(O)cc1)[C@@H](C)O)[C@@H](C)O)[C@@H](C)CC)[C@@H](C)CC)C(=O)N[C@@H](CCCCNC(=O)COCCOCCNC(=O)COCCOCCNC(=O)COCCOCCNC(=O)CC[C@H](NC(=O)CCCCCCCCCCCCC(=O)O)C(=O)O)C(=O)NCC(=O)NCC(=O)N1CCC[C@H]1C(=O)N[C@@H](CO)C(=O)N[C@@H](CO)C(=O)NCC(=O)N[C@@H](C)C(=O)N1CCC[C@H]1C(=O)N1CCC[C@H]1C(=O)N1CCC[C@H]1C(=O)N[C@@H](CO)C(N)=O` [Example 479]: the Ki turned out to be 213 nM in test [1], 0.246 nM in test [2] and 0.0249 nM in [3]. Further, the Emax at hGIPR was 89.5%; at hGLP-1R (0.1% bovine casein and 1.0% human serum albumin), 95.3%. Besides, the EC50 was 0.00718 nM on hGIPR, more than 9950 nM at hGCGR (setting [7]), more than 9950 nM at hGCGR (setting [8]) and 0.115 nM on hGLP-1R (setting [7]).

With `CC[C@H](C)[C@H](NC(=O)[C@H](CC(C)C)NC(=O)[C@](C)(Cc1ccc(O)cc1)NC(=O)[C@H](CCCCNC(=O)CCCCCNC(=O)COCCOCCNC(=O)CC[C@H](NC(=O)CCCCCCCCCCCCC(=O)O)C(=O)O)NC(=O)[C@@H](NC(=O)[C@H](Cc1ccccc1)NC(=O)[C@H](CCCN)NC(=O)C(C)(C)NC(=O)[C@H](CCC(N)=O)NC(=O)[C@H](C)NC(=O)[C@H](CCC(N)=O)NC(=O)[C@H](CCCN)NC(=O)[C@H](CC(=O)O)NC(=O)[C@H](CC(C)C)NC(=O)[C@](C)(CC(C)C)NC(=O)[C@@H](NC(=O)C(C)(C)NC(=O)[C@H](Cc1ccncc1)NC(=O)[C@H](CC(=O)O)NC(=O)[C@H](CO)NC(=O)[C@@H](NC(=O)[C@](C)(Cc1ccccc1F)NC(=O)[C@@H](NC(=O)CNC(=O)[C@H](CCC(=O)O)NC(=O)C(C)(C)NC(=O)[C@@H](N)Cc1ccc(O)cc1)[C@@H](C)O)[C@@H](C)O)[C@@H](C)CC)[C@@H](C)CC)C(=O)N[C@@H](CCCCNC(=O)CCCCCNC(=O)COCCOCCNC(=O)CC[C@H](NC(=O)CCCCCCCCCCCCC(=O)O)C(=O)O)C(=O)NCC(=O)NCC(=O)N1CCC[C@H]1C(=O)N[C@@H](CO)C(=O)N[C@@H](CO)C(=O)NCC(=O)N[C@@H](C)C(=O)N1CCC[C@H]1C(=O)N1CCC[C@H]1C(=O)N1CCC[C@H]1C(=O)N[C@@H](CO)C(N)=O` [Example 451], the values for the Ki in test [1], in [2] and in [3] were 258 nM, 0.234 nM and 0.0239 nM, respectively. Moreover, the Emax on hGIPR turned out to be 89.5%; on hGLP-1R (setting [9]), 118%. Further, the EC50 at hGIPR is 0.0113 nM; at hGCGR (setting [7]), more than 9950 nM; on hGCGR (setting [8]), more than 9950 nM; on hGLP-1R (setting [7]), 0.172 nM.

In the case of `CCCCCCCCCCCC(=O)N[C@@H](CCC(=O)NCCOCCOCC(=O)NCCOCCOCC(=O)NCCCC[C@H](NC(=O)[C@H](CCCN)NC(=O)[C@H](CC(=O)O)NC(=O)[C@H](CC(C)C)NC(=O)[C@](C)(CC(C)C)NC(=O)[C@@H](NC(=O)C(C)(C)NC(=O)[C@H](Cc1ccncc1)NC(=O)[C@H](CC(=O)O)NC(=O)[C@H](CO)NC(=O)[C@@H](NC(=O)[C@](C)(Cc1ccccc1F)NC(=O)[C@@H](NC(=O)CNC(=O)[C@H](CCC(=O)O)NC(=O)C(C)(C)NC(=O)[C@@H](N)Cc1ccc(O)cc1)[C@@H](C)O)[C@@H](C)O)[C@@H](C)CC)C(=O)N[C@@H](C)C(=O)N[C@@H](CCC(N)=O)C(=O)NC(C)(C)C(=O)NCC(=O)N[C@@H](Cc1ccccc1)C(=O)N[C@H](C(=O)N[C@H](CCC(=O)O)C(=O)N[C@@](C)(Cc1ccc(O)cc1)C(=O)N[C@@H](CC(C)C)C(=O)N[C@H](C(=O)N[C@@H](CCCCNC(=O)COCCOCCNC(=O)COCCOCCNC(=O)CC[C@H](NC(=O)CCCCCCCCCCC)C(=O)O)C(=O)NCC(=O)NCC(=O)N1CCC[C@H]1C(=O)N[C@@H](CO)C(=O)N[C@@H](CO)C(=O)NCC(=O)N[C@@H](C)C(=O)N1CCC[C@H]1C(=O)N1CCC[C@H]1C(=O)N1CCC[C@H]1C(=O)N[C@@H](CO)C(N)=O)[C@@H](C)CC)[C@@H](C)CC)C(=O)O` [Example 494], the Ki was 135 nM in test [1], 0.188 nM in test [2] and 0.0197 nM in test [3]. For the same molecule, at hGIPR, the Emax was 92.6%. Moreover, the concentration giving a half-maximal response (EC50) at hGIPR is 0.0123 nM; at hGCGR (setting [7]), more than 9950 nM; on hGCGR (setting [8]), more than 9950 nM; at hGLP-1R (setting [7]), 0.15 nM.

Consider `CC[C@H](C)[C@H](NC(=O)[C@H](CC(C)C)NC(=O)[C@](C)(Cc1ccc(O)cc1)NC(=O)[C@H](CCCCNC(=O)COCCOCCNC(=O)COCCOCCNC(=O)COCCOCCNC(=O)CC[C@H](NC(=O)CCCCCCCCCCCCC(=O)O)C(=O)O)NC(=O)[C@@H](NC(=O)[C@H](Cc1ccccc1)NC(=O)[C@H](CCC(=O)O)NC(=O)C(C)(C)NC(=O)[C@H](CCC(N)=O)NC(=O)[C@H](C)NC(=O)[C@H](CCC(N)=O)NC(=O)[C@H](CCCN)NC(=O)[C@H](CC(=O)O)NC(=O)[C@H](CC(C)C)NC(=O)[C@](C)(CC(C)C)NC(=O)[C@@H](NC(=O)C(C)(C)NC(=O)[C@H](Cc1ccncc1)NC(=O)[C@H](CC(=O)O)NC(=O)[C@H](CO)NC(=O)[C@@H](NC(=O)[C@](C)(Cc1ccccc1F)NC(=O)[C@@H](NC(=O)CNC(=O)[C@H](CCC(=O)O)NC(=O)C(C)(C)NC(=O)[C@@H](N)Cc1ccc(O)cc1)[C@@H](C)O)[C@@H](C)O)[C@@H](C)CC)[C@@H](C)CC)C(=O)N[C@@H](CCCCNC(=O)COCCOCCNC(=O)COCCOCCNC(=O)COCCOCCNC(=O)CC[C@H](NC(=O)CCCCCCCCCCCCC(=O)O)C(=O)O)C(=O)NCC(=O)NCC(=O)N1CCC[C@H]1C(=O)N[C@@H](CO)C(=O)N[C@@H](CO)C(=O)NCC(=O)N[C@@H](C)C(=O)N1CCC[C@H]1C(=O)N1CCC[C@H]1C(=O)N1CCC[C@H]1C(=O)N[C@@H](CO)C(N)=O` [Example 460], for which the inhibitory constant (Ki) in test [1] was more than 959 nM; in test [3], 0.0528 nM. Further, the values for the Emax on hGIPR and on hGLP-1R (setting [9]) were 89.5% and 111%, respectively. Besides, the EC50 at hGIPR was 0.0108 nM; on hGCGR (setting [7]) it was more than 9950 nM; on hGCGR (setting [8]) it was more than 9950 nM; at hGLP-1R (setting [7]) it was 0.187 nM; on hGLP-1R (setting [8]), 6.31 nM.

B1: Example 244 (peptide)
peptide: YXEGTXTSDXXIXLDXKAQXEFIXXLIKGGPSSGAPPPS
modifications: Y-Aib-EGT-αMeF(2F)-TSD-4Pal-Aib-I-αMeL-LD-Orn-K((2-[2-(2-Amino-ethoxy)-ethoxy]-acetyl)2-(γ-Glu)-(10-(4-carboxyphenoxy)decanoyl))AQ-Aib-EFI-(D-Glu)-αMeY-LIK((2-[2-(2-Amino-ethoxy)-ethoxy]-acetyl)2-(γ-Glu)-(10-(4-carboxyphenoxy)decanoyl))GGPSSGAPPPS-NH2
For the molecule B1, the cAMP EC50 in test [4] is more than 9950 nM; in test [5], 2.25 nM; in test [6], 0.0218 nM. The cAMP Emax in test [5] stood at 104%; in test [6] it was 101%. For the same molecule, the entries for the “cAMP EC50 (1.0% HSA)” value in the test with human GIP receptor and with human GLP-1 receptor were 0.983 nM and 30.8 nM, respectively.
